Measurements published in patent US4962113A, “Pyridinium derivatives, their production and use” (Takeda Chemical Industries, Ltd, priority 1987, dated 1990).
Where two headings read alike, the source gives them in different places.

Legend:
[1] = system: PAF-induced bronchoconstriction; assay: PAF inhibitory action in bronchoconstriction; assay type: in vivo, guinea pig (Hartley); details: oral, 30 mg/kg, one hour before PAF (0.3 μg/kg i.v.)
Experimental: Female and male Hartley guinea pigs weighing about 400 g were fixed on the dorsal position under anesthesia with an ethylcarbamate (1.5 g/kg, intraperitoneally). One leg of a cannula (4 legs) was inserted into the trachea, and two of the remaining three legs were connected to an artificial respirator (Harvard apparatus rodent respirator). The remaining one leg (side tube) was connected to a bronchospasm transducer 7020 (Ugobasile).
While the air volume per ventilation was adjusted to 5 to 7 ml and the air ventilation rate was controlled at 70 times/min., with a load pressure to the lung set at 10 cm H2 O, the overflown air volume was recorded on Rectigraph (Rectigraph-8S, San-ei Seiki Inc.) through a transducer. After 1 mg/kg of gallamine triethodide was given intravenously to the animals, histamine dihydrochloride (10 μg/kg) was applied intravenously to examine reaction of the animals. PAF(0.3 μg/kg) was administered intravenously, and, 30 sec. later, maximum bronchoconstriction was observed. Under these conditions, bronchoconstriction activity of the test samples was examined. The test sample was suspended in a 5% gum arabic solution, and given orally one hour before the administration of PAF. The compounds obtained in Production Examples 3 and 4 inhibited PAF-induced bronchoconstriction by oral administration (30 mg/kg).

[2] = system: platelet aggregation (PAF); assay: Inhibitory action on PAF-induced rabbit platelet aggregation; assay type: cell-based; details: Oryctolagus cuniculus, read-out: inhibitory percentage (platelet aggregation); for inhibition at 3 µM: 3 × 10^-6 M; for inhibition at 0.3 µM: 3 × 10^-7 M; for inhibition at 0.03 µM: 3 × 10^-8 M
Experimental: Blood was collected directly from the hearts of male rabbits using a syringe containing, as an anticoagulant, 3.15% citric acid (one part to 9 parts of blood). The blood was subjected to centrifuge at 800 rpm for ten minutes at room temperature to obtain platelet rich plasma (PRP). The remaining blood was further subjected to centrifuge at 3000 rpm for ten minnutes to separate platelet poor plasma (PPP) as the supernatant. PRP was diluted with PPP, and the number of platelets was adjusted to about 500,000/ μl. This PRP(250 μl) was stirred for two minutes at 37° C., and there was added a test sample, and the mixture was stirred for further two minutes, followed by addition of PAF of a given concentration. Platelet aggregation was examined by means of a platelet-agglutometer (manufactured by Rika Denki). Platelet aggregation preventing action of the test sample was determined based on the maximum percent light transmission (maximum percent. agglutination).

[3] = system: PAF-induced hypotension; assay: Inhibitory action on PAF-induced hypotension in rats; assay type: in vivo, rat (Sprague-Dawley); details: Rattus norvegicus, read-out: Inhibitory Rate (Lowering of Blood Pressure); for inhibition in vivo at 0.01 mg/kg / inhibition in vivo at 0.1 mg/kg / inhibition in vivo at 0.03 mg/kg: iv; for inhibition in vivo at 1 mg/kg / inhibition in vivo at 3 mg/kg / inhibition in vivo at 10 mg/kg: oral
Experimental: Sprague-Dawley male rats, each weighing about 250 g, were subjected to the experiment. The rats were cannulated on the side of femoral artery for measuring the blood pressure, and on the side of femoral vein for administering the drug. The blood pressure was measured through a pressure transducer and recorded. First, PAF (1 μg/kg) was administered intravenously (i.v.) to examine the extent of lowering of blood pressure. Then, the test samples were administered intravenously or orally. […]
The inhibitory action on PAF-induced hypotension (% inhibition) is indicated as the ratio of blood pressure-lowering degree (Δ mmHg) induced by PAF after administration of test samples relative to blood pressure-lowering degree (Δ mmHg) induced by PAF before administration of test samples.

[4] = Acute Toxicity Test; assay type: in vivo; details: oral, 1000 mg/kg, until after one week
Experimental: Male Jcl-ICR mice (5 wk) were used in groups of five individuals. The animals of the respective groups were orally administered with the compounds (227), (236) and (303) respectively produced in Production Examples 87, 90 and 109 at the dose of 1000 mg/kg.

[5] = system: Reversed Passive Arthus reaction; assay: Reversed Passive Arthus reaction; assay type: in vivo, rat (Sprague-Dawley); details: oral, 6.25 mg/kg, one hour before antigen
Experimental: Under ether anesthesia, the hair of the back of Sprague-Dawley male rats (7-week old, about 250 g body weight) was cut, and 0.5 ml of a 5% solution of gum arabia of a test compound relative to 100 g of the body weight of the animals was orally administered (one hour before injection of antigen). An antigen, egg albumin dissolved in physiological saline (5 mg/kg) was administered through the tail vein. Immediately, 0.1 ml each of a rabbit anti-egg albumin serum (containing 6 mg protein antibody/ml) was administered intracutaneously at one spot each of left- and right-hand sides of the back of rats. Three hours later, 1 ml of physiological saline containing 1% of Evans blue was given intravenously, and 30 minutes later, the skin of the animals was excised, and the area (mm^2) of blue spots was measured. The results were compared with those of the control group, and the inhibitory ratio was determined.

| SMILES | inhibition of PAF-induced bronchoconstriction [1] [%] | inhibition at 3 µM [2] [%] | inhibition at 0.3 µM [2] [%] | inhibition at 0.03 µM [2] [%] | inhibition in vivo at 0.01 mg/kg ([3]; 1 hr.) [%] | inhibition in vivo at 0.01 mg/kg ([3]; 2 hr.) [%] | inhibition in vivo at 0.01 mg/kg ([3]; 4 hr.) [%] | inhibition in vivo at 0.01 mg/kg ([3]; 6 hr.) [%] | inhibition in vivo at 0.01 mg/kg ([3]; 8 hr.) [%] | inhibition in vivo at 0.01 mg/kg ([3]; 5 min, i.v., 5 min.) [%] | inhibition in vivo at 1 mg/kg ([3]; 1 hr.) [%] | inhibition in vivo at 1 mg/kg ([3]; 2 hr.) [%] | inhibition in vivo at 1 mg/kg ([3]; 4 hr.) [%] | inhibition in vivo at 1 mg/kg ([3]; 6 hr.) [%] | inhibition in vivo at 1 mg/kg ([3]; 8 hr.) [%] | inhibition in vivo at 3 mg/kg ([3]; 1 hr.) [%] | inhibition in vivo at 3 mg/kg ([3]; 2 hr.) [%] | inhibition in vivo at 3 mg/kg ([3]; 4 hr.) [%] | inhibition in vivo at 3 mg/kg ([3]; 6 hr.) [%] | inhibition in vivo at 3 mg/kg ([3]; 8 hr.) [%] | further results |
| --- | --- | --- | --- | --- | --- | --- | --- | --- | --- | --- | --- | --- | --- | --- | --- | --- | --- | --- | --- | --- | --- |
| CCCCCCCCCCCCCCCCCCNC(=O)OCC(COC(=O)NCCN(C(=O)c1cc(Br)c[n+](CC)c1)c1ccccc1)OC (stereo not drawn) [Production Example 3, 5-bromo-3-[N-[2-(2-methoxy-3-octadecylcarbamoyloxyproxycarbonyl)]aminoethyl-N-phenyl]carbamoyl-1-ethyl pyridinium iodide] | 64.9 |  |  |  |  |  |  |  |  |  |  |  |  |  |  |  |  |  |  |  |  |
| CCCCCCCCCCCCOCCOCCOC(=O)NCCN(C(=O)c1cc(Br)c[n+](CC)c1)c1ccccc1 [Production Example 4, 5-bromo-3-[N-[2-[2-(2-dodecyloxyethoxy)ethoxycarbonyl]]aminoethyl-N-phenyl]carbamoyl-1-ethylpyridinium iodide] | 59.9 | 100 | 100 | 100 |  |  |  |  |  |  |  |  |  |  |  |  |  |  |  |  |  |
| CCC[n+]1cc(Br)cc(C(=O)N(CCC(=O)NCCOC(=O)N2CCc3ccccc3C2)c2ccccc2)c1 [Production Example 87, 5-Bromo-3-[N-[2-[[2-(1,2,3,4-tetrahydroisoquinolyl)carbonyloxy]ethyl]carbamoyl]ethyl-N-phenyl]carbamoyl-1-propylpyridinium chloride] |  | 100 | 100 | 49 | 64 | 51 | 41 | 30 | 23 | 91 | 57 | 76 | 86 | 74 | 63 | 100 | 97 | 99 | 93 | 88 | death of mice [4]: No death of mice was observed |
| CCC[n+]1cc(Br)cc(C(=O)N(CCC(=O)NCCNS(=O)(=O)c2cccc3ccccc23)c2ccccc2)c1 [Production Example 109, 5-Bromo-3-[N-[2-[2-(1-naphthylsulfonamide)ethyl]carbamoyl]-ethyl-N-phenyl]carbamoyl-1-propylpyridinium chloride] |  | 100 | 100 | 26 |  |  |  |  |  |  | 56 | 65 | 64 | 54 | 48 | 95 | 97 | 97 | 92 | 80 | inhibition in vivo at 0.1 mg/kg ([3]; 1 hr.): 100%; inhibition in vivo at 0.1 mg/kg ([3]; 2 hr.): 97%; inhibition in vivo at 0.1 mg/kg ([3]; 4 hr.): 71%; inhibition in vivo at 0.1 mg/kg ([3]; 6 hr.): 50%; inhibition in vivo at 0.1 mg/kg ([3]; 8 hr.): 46%; inhibition in vivo at 0.1 mg/kg ([3]; 5 min, i.v., 5 min.): 100%; death of mice [4]: No death of mice was observed |
| CCC[n+]1cc(Br)cc(C(=O)N(CCOC(=O)NCCOC(=O)Nc2cccc3ccccc23)c2ccccc2)c1 [Production Example 10, 5-bromo-3-[N-[2-[2-(1-naphthylcarbamoyloxy)ethyl]carbamoyloxy]ethyl-N-phenyl]carbamoyl-1-propylpyridinium chloride] |  | 100 | 91 |  | 65 | 60 | 53 | 47 | 36 | 79 | 33 | 51 | 56 | 59 | 47 | 79 | 83 | 87 | 83 | 81 | inhibition in vivo at 0.03 mg/kg ([3]; 1 hr.): 97%; inhibition in vivo at 0.03 mg/kg ([3]; 2 hr.): 84%; inhibition in vivo at 0.03 mg/kg ([3]; 4 hr.): 65%; inhibition in vivo at 0.03 mg/kg ([3]; 6 hr.): 55%; inhibition in vivo at 0.03 mg/kg ([3]; 8 hr.): 47%; inhibition in vivo at 0.1 mg/kg ([3]; 1 hr.): 100%; inhibition in vivo at 0.1 mg/kg ([3]; 2 hr.): 94%; inhibition in vivo at 0.1 mg/kg ([3]; 4 hr.): 89%; inhibition in vivo at 0.1 mg/kg ([3]; 6 hr.): 81%; inhibition in vivo at 0.1 mg/kg ([3]; 8 hr.): 76%; inhibition in vivo at 0.03 mg/kg ([3]; 5 min, i.v., 5 min.): 100%; inhibition in vivo at 0.1 mg/kg ([3]; 5 min, i.v., 5 min.): 100%; inhibition in vivo at 10 mg/kg ([3]; 1 hr.): 96%; inhibition in vivo at 10 mg/kg ([3]; 2 hr.): 96%; inhibition in vivo at 10 mg/kg ([3]; 4 hr.): 96%; inhibition in vivo at 10 mg/kg ([3]; 6 hr.): 93%; inhibition in vivo at 10 mg/kg ([3]; 8 hr.): 90%; preventive ratio [5]: 57% |
